{"source": "patent US20240352040A1", "about": "“CRYSTAL FORM OF RIPK1 INHIBITOR, ACID SALT THEREOF, AND CRYSTAL FORM OF ACID SALT THEREOF” (GENFLEET THERAPEUTICS (SHANGHAI) INC., priority 2021, published 2024)", "key": {"[1]": {"test": "Suspension competition test between crystal forms of the sulfate salt (anhydrous/hydrate transformation relationship)", "assay_type": "physicochemical", "experimental": "A suspension competition test between the anhydrous crystal form A of the sulfate salt obtained in Example 5 and the anhydrous crystal form D of the sulfate salt obtained in Example 19 was set up, including conditions of 5° C., 25° C., and 50° C. in methanol and 25° C. in ACN. (Test numbers are from A1 to A4)\nA suspension competition test between the monohydrate crystal form C of the sulfate salt obtained in Example 4 and the anhydrous crystal form A of the sulfate salt obtained in Example 5 was set up at room temperature, including a suspension competition test in ACN/H2O (aw=0/0.2/0.4/0.6/0.8) of different water activities at room temperature. (Test numbers are from B1 to B5)\nThe specific steps are as follows: 1) saturated solutions of sulfate salt in different solvent systems at room temperature were prepared; 2) equal mass of the corresponding samples of crystal form of sulfate salt (about 5 mg each) were added to 1 mL of saturated solution to form a suspension, respectively; 3) the suspension was magnetically stirred at corresponding temperature; 4) the remaining solid was separated and tested by XRPD."}, "[2]": {"test": "Rough solubility in different solvent systems at room temperature", "assay_type": "physicochemical", "conditions": "50 °C, organic solvent or mixture, thermodynamic from solid, *Dissolve to clear at 50° C."}, "[3]": {"test": "Rough solubility in different solvent systems at room temperature", "assay_type": "physicochemical", "experimental": "The rough solubility of the free base anhydrous crystal form A of the compound of formula I obtained in Example 1 and the monohydrate crystal form C of the sulfate salt of the compound of formula I obtained in Example 4 was tested in different solvent systems at room temperature. About 2 mg of the solid sample was weighed into an HPLC vial, and then the corresponding solvent was gradually (50/50/200/700 μL in sequence) added thereto and shaken until the solid dissolved to clear. If the sample was still not dissolved to clear after the addition of 1 mL of solvent, no more solvent would be added. The rough solubility ranges calculated from the mass of the solid sample, the volume of the added solvent, and the observed dissolution phenomena are shown in Table 25-1 and Table 25-2."}, "[4]": {"test": "Hygroscopicity by dynamic vapor sorption (DVS) at 25° C.", "assay_type": "physicochemical", "experimental": "(3) Dynamic vapor sorption (DVS): Dynamic vapor sorption (DVS) curves were collected on DVS Intrinsic from SMS (surface measurement systems). The relative humidity at 25° C. was corrected using the deliquescence points of LiCl, Mg(NO3)2, and KCl.\nThe hygroscopicity of the sample of the monohydrate crystal form C of the sulfate salt obtained in […] was evaluated through the DVS test from 0% RH to […] at 25° C."}, "[5]": {"test": "Solid state stability (XRPD crystal form, HPLC purity)", "assay_type": "physicochemical", "conditions": "for Purity / Purity/initial purity / Initial purity: HPLC; for Crystal form transition: XRPD; for Initial purity: before the stability test, monohydrate crystal form C of sulfate salt", "experimental": "(6) High performance liquid chromatography (HPLC): Purity and solubility in the test were determined by Agilent 1260 high performance liquid chromatograph, and the analytical conditions are shown in Table 4.\nAppropriate amounts of the samples of the monohydrate crystal form C of the sulfate salt […], and then placed for one week in an open state of 40° C./75% RH. Solid samples separated under different conditions were respectively subjected to XRPD test to evaluate the transition of crystal forms, and subjected to HPLC test to evaluate purity and chemical stability."}, "RIPK1": {"target": "T1, RIPK1 (Homo sapiens, UniProt Q13546)", "T1 construct": "purchased Eurofins 16-022", "T1 sequence (Q13546 1-671)": "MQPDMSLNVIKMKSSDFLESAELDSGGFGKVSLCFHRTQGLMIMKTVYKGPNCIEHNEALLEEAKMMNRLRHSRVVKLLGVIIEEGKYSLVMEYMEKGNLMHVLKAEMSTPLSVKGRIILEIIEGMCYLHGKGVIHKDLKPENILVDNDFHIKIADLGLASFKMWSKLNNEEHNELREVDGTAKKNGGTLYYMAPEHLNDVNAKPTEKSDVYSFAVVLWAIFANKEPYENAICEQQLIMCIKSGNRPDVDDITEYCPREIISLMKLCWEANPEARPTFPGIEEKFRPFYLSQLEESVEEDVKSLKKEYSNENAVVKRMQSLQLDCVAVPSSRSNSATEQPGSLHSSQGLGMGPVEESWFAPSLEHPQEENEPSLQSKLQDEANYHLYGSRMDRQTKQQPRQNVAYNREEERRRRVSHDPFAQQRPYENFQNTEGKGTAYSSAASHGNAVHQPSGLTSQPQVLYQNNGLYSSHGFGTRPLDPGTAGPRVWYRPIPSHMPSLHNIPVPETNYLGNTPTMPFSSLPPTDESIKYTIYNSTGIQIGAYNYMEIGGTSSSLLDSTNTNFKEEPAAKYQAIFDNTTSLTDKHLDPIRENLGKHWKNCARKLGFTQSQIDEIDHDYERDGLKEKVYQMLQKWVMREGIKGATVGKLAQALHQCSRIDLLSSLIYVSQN", "test": "Inhibitory activity against RIPK1 enzyme, P33-ATP / MBP substrate radiometric assay", "assay_type": "biochemical", "conditions": "36 nM RIPK1, 0.33 mg/mL MBP, 155 μM P33 ATP, 2 hours room temperature", "experimental": "(§1) The U937 cell line used in the following test examples was derived from ATCC, No.: CRL-1593.2, batch No.: 63479999, culture medium: RPMI-1640+10% FBS. The L929 cell line used in the following test examples was derived from ATCC, No.: CCL-1, batch No.: 70001022, culture medium: MEM+10% FBS+1% PS. […]\nThe test compound was dissolved in DMSO to prepare a 10 mM stock solution, and diluted 3.16-fold with DMSO to a series of gradient concentrations. […] The final reaction system was detected using a liquid scintillation counter after treatment. The result after detection was subtracted from the blank control and converted to the percentage of activity compared with the reading of the control group. […]"}, "U937 cells": {"system": "U937 cells", "test": "Inhibition of TNF-α-induced programmed cell necrosis (necroptosis) in U937 cells, CellTiter-Glo", "assay_type": "cell-based", "conditions": "U-937, human TNF-α + Q-VD-Oph, 48 hours, read-out: inhibitory IC50 against programmed necroptosis of cells induced by TNF-α", "text": "The U937 cell line used in the following test examples was derived from ATCC, No.: CRL-1593.2, batch No.: 63479999, culture medium: RPMI-1640+10% FBS. The L929 cell line used in the following test examples was derived from ATCC, No.: CCL-1, batch No.: 70001022, culture medium: MEM+10% FBS+1% PS. The reagents used, their suppliers, and item numbers are as follows: RPMI-1640, Gibco, 11875-093; FBS, Gibco, 10099-141; Trypsin-EDTA, Gibco, 25200-072; PS, Gibco, 15140-122; CellTiter Glo, Promega, G7573; DMSO, VWR AMRESCO, 0231-500ML; TNF-α protein (human, recombinant), Peprotech, 300-01A; Q-VD-Oph, MCE, HY-12305; V-bottom plate, Corning, 3894; 384-well low flange white flat bottom microplate, Corning, 3570; RIPK1, Eurofins, 16-022; MOPS, BDH, 441644J; EDTA, Sigma, E5134; myelin basic protein, Sigma, M1891-25.00 MG; magnesium acetate, Merck, DU008026; ATP (non-radioactive labelled), Sigma, A-7699; ATP (radioactive labelled), Hartmann Analytic, DU008054; phosphoric acid, Metlab, DU003000; Z-VAD: Shanghai Twochem, YA02401.\n(§2) The test compound was dissolved in DMSO and diluted to a series of concentration gradients with DMSO. […] After sufficient lysis reaction, the chemiluminescence readings were recorded by a microplate reader. The survival rate was calculated from the detection results using the equation as follows: SR (%)=(RLU compound−RLU blank)/(RLU high control−RLU blank)×100%. […]"}, "L929 cells": {"system": "L929 cells", "test": "Inhibition of TNF-α-induced programmed necrosis of L929 cells, CellTiter-Glo", "assay_type": "cell-based", "conditions": "30 ng/mL mouse TNF-α + 15 μM Z-VAD, 6 hours, read-out: inhibitory IC50 against programmed necroptosis of cells induced by TNF-α", "experimental": "as §1\nas §2, with “The” for “The test”, “DMSO to prepare a 10 mM stock solution” for “DMSO”, “diluted 3.16-fold with DMSO” for “diluted”, “gradient concentrations.” for “concentration gradients with DMSO.”"}, "[6]": {"conditions": "40° C./75% RH/1 week, open, listed as Example 4"}, "[7]": {"conditions": "40° C./75% RH/1 week, open, listed as Example 9"}, "[8]": {"conditions": "60° C./sealed/1 week, listed as Example 4"}, "[9]": {"conditions": "60° C./sealed/1 week, listed as Example 9"}, "[10]": {"conditions": "sealed 24 hours at 60° C., open one week at 40° C./75% RH, two batches"}}, "note": "Counter-ions that a name gives are not always drawn. Like-named read-outs stand apart in the source and are kept apart here."}
{"smiles": "O=S(=O)(O)O", "note": "[sulfate]", "values": [{"measurement": "solid form obtained after stirring in water", "setting": "[1]; water, water activity of about 1", "result": "free base crystal form A was obtained"}]}
{"smiles": "Nc1nc2cc(-c3cnc4c(c3)C(=O)N(Cc3cc(OC(F)(F)F)ccc3F)CC4)ccn2n1", "note": "[free base anhydrous crystal form A, 3-(2-amino-[1,2,4]triazolo[1,5-a]pyridin-7-yl)-6-(2-fluoro-5-(trifluoromethoxy)benzyl)-7,8-dihydro-1,6-naphthyridin-5(6H)-one]", "values": [{"measurement": "solubility", "setting": "[2]; dimethyl sulfoxide", "result": "7700 to 23000", "unit": "µg/mL"}, {"measurement": "solubility", "setting": "[3]; Methanol", "result": "S < 1.8 mg/mL"}, {"measurement": "solubility", "setting": "[3]; acetone, organic solvent or mixture, thermodynamic from solid, Acetone, read-out: Solubility", "result": "< 1800", "unit": "µg/mL"}, {"measurement": "solubility", "setting": "[3]; acetonitrile, organic solvent or mixture, thermodynamic from solid, Acetonitrile, read-out: Solubility", "result": "< 1900", "unit": "µg/mL"}, {"measurement": "solubility", "setting": "[3]; ethanol, organic solvent or mixture, thermodynamic from solid, Ethanol, read-out: Solubility", "result": "< 2200", "unit": "µg/mL"}, {"measurement": "solubility", "setting": "[3]; isopropanol, organic solvent or mixture, thermodynamic from solid, Isopropanol, read-out: Solubility", "result": "< 1900", "unit": "µg/mL"}, {"measurement": "solubility", "setting": "[3]; n-heptane, organic solvent or mixture, thermodynamic from solid, n-Heptane, read-out: Solubility", "result": "< 1700", "unit": "µg/mL"}, {"measurement": "solubility", "setting": "[3]; water, thermodynamic from solid, Water, read-out: Solubility", "result": "< 2100", "unit": "µg/mL"}]}
{"smiles": "Nc1nc2cc(-c3cnc4c(c3)C(=O)N(Cc3cc(OC(F)(F)F)ccc3F)CC4)ccn2n1", "values": [{"measurement": "solubility", "setting": "[2]; isopropanol", "result": "< 2400", "unit": "µg/mL"}, {"measurement": "solubility", "setting": "[3]; dimethyl sulfoxide, organic solvent or mixture, thermodynamic from solid, Dimethyl sulfoxide, read-out: Solubility", "result": "> 42000", "unit": "µg/mL"}]}
{"smiles": "Nc1nc2cc(-c3cnc4c(c3)C(=O)N(Cc3cc(OC(F)(F)F)ccc3F)CC4)ccn2n1", "note": "[monohydrate crystal form C of the sulfate salt]", "values": [{"measurement": "hygroscopicity assessment", "setting": "[4]; DVS, 25° C.", "result": "slightly hygroscopic"}, {"measurement": "hygroscopic weight gain", "setting": "[4]; DVS, 25° C./80% RH", "result": "about 0.2700"}, {"measurement": "crystal form transition after the DVS test (XRPD)", "setting": "[4]; after DVS test", "result": "no crystal form transition"}, {"measurement": "Purity", "setting": "[5]; [6]", "result": 99.46, "unit": "%"}, {"measurement": "Purity/initial purity", "setting": "[5]; [6]", "result": 99.98, "unit": "%"}, {"measurement": "Purity", "setting": "[5]; [7]", "result": 99.45, "unit": "%"}, {"measurement": "Purity/initial purity", "setting": "[5]; [7]", "result": 99.93, "unit": "%"}, {"measurement": "Crystal form transition", "setting": "[5]; 40° C./75% RH/1 week, open", "result": "No"}, {"measurement": "Purity", "setting": "[5]; [8]", "result": 99.47, "unit": "%"}, {"measurement": "Purity/initial purity", "setting": "[5]; [8]", "result": 99.99, "unit": "%"}, {"measurement": "Purity", "setting": "[5]; [9]", "result": 99.39, "unit": "%"}, {"measurement": "Purity/initial purity", "setting": "[5]; [9]", "result": 99.87, "unit": "%"}, {"measurement": "Crystal form transition", "setting": "[5]; 60° C./sealed/1 week", "result": "No"}, {"measurement": "Initial purity", "setting": "[5]; listed as Example 4", "result": 99.48, "unit": "%"}, {"measurement": "Initial purity", "setting": "[5]; listed as Example 9", "result": 99.52, "unit": "%"}, {"measurement": "change in HPLC purity", "setting": "[5]; [10]", "result": "do not show any significant decrease"}, {"measurement": "change of crystal form (XRPD)", "setting": "[5]; [10]", "result": "does not change"}, {"measurement": "thermodynamic stability range under different water activities", "setting": "[1]; room temperature", "result": "relatively wide"}, {"measurement": "solubility", "setting": "[3]; Acetone", "result": "S < 2.4 mg/mL"}, {"measurement": "solubility", "setting": "[3]; Acetonitrile", "result": "S < 2.4 mg/mL"}, {"measurement": "solubility", "setting": "[3]; Water", "result": "S < 2.4 mg/mL"}, {"measurement": "solubility", "setting": "[3]; n-Heptane", "result": "S < 2.3 mg/mL"}]}
{"smiles": "Nc1nc2cc(-c3cnc4c(c3)C(=O)N(Cc3cc(OC(F)(F)F)ccc3F)CC4)ccn2n1", "note": "[compound of formula I, 3-(2-amino-[1,2,4]triazolo[1,5-a]pyridin-7-yl)-6-(2-fluoro-5-(trifluoromethoxy)benzyl)-7,8-dihydro-1,6-naphthyridin-5(6H)-one]", "values": [{"measurement": "IC50", "setting": "RIPK1", "result": 39, "unit": "nM"}, {"measurement": "IC50", "setting": "U937 cells", "result": 6, "unit": "nM"}, {"measurement": "IC50", "setting": "L929 cells", "result": 3, "unit": "nM"}]}
